Like-named read-outs stand apart in the source and are kept apart here.
Target: hPK-M2 (Homo sapiens, UniProt P14618)
Assay: Luminescent pyruvate kinase-luciferase coupled assay (KinaseGlo)
Assay type: biochemical
Conditions: for activation at 57 µM: read-out: hPK, M2 Max. Res.
Description: Luminescent Pyruvate Kinase-Luciferase Coupled Assay.
Production of a luminescent signal based on the generation of ATP by pyruvate kinase was determined by using the ATP-dependent enzyme firefly luciferase. Three μL of substrate mix (at r.t.) in assay buffer (50 mM imidazole pH 7.2, 50 mM KCl, 7 mM MgCl2, 0.01% tween 20, 0.05% BSA) was dispensed into Kalypsys white solid bottom 1,536 well microtiter plates using a bottle-valve solenoid-based dispenser (Kalypsys). The final concentrations of substrates in the assay were 0.1 mM ADP and 0.5 mM PEP. […] Microtiter plates were incubated at r.t. for 1 hour and 2 uL of luciferase detection mix (Kinase-Glo, Promega at 4° C. protected from light) was added and luminescence was read with a ViewLux (Perkin Elmer) using a 5 second exposure/plate. Data was normalized for AC50 values to control columns containing uninhibited enzyme (n), and AC100 inhibition (i) according the following equation: Activation (%)=[(c−n)/(n−i)]*100 where c=compound, n=DMSO neutral, i=no enzyme control. […] Monitoring of activation was accomplished using enzyme at 3× the final concentration.

[1] = KinaseGlo, % activation at 57 μM of compound
[2] = luminescent pyruvate kinase-luciferase coupled assay (KinaseGlo), tables, read-out: hPK, M2 AC50
[3] = luciferase-coupled assay, read-out: AC50

Sequence of hPK-M2 (P14618 whole entry): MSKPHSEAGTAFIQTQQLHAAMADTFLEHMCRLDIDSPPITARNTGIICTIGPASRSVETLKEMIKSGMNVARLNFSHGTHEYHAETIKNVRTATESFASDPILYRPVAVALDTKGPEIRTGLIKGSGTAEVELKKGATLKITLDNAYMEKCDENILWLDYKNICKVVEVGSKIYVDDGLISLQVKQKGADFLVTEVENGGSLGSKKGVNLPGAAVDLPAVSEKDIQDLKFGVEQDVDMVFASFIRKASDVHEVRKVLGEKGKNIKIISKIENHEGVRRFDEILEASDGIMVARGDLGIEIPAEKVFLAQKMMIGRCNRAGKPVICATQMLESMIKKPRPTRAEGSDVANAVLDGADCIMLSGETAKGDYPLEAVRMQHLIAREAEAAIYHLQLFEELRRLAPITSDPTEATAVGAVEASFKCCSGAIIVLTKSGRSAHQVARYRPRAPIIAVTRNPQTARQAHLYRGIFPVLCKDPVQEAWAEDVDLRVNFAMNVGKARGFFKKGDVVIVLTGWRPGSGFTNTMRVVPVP

Compound | AC50 [2] | activation at 57 µM [1] | other results
Cc1cc2c(s1)c1cnn(Cc3ccc(C)c(F)c3F)c(=O)c1n2C [Compound 119, 2,4-Methyl-6-[(4-methyl-2,3-fluorophenyl)methyl]-4H-thieno[3,2-b]pyrrole[3,2-d]pyridazinone] | 108 ± 30 nM |  | hPK, M2 Max. Res. [1]: 80.5 ± 5.8%
O=S(=O)(NC1CCN(S(=O)(=O)c2c(F)cccc2F)CC1)c1ccc2c(c1)OCCO2 [Compound 39, N-(1-(2,6-difluorophenylsulfonyl)piperidin-4-yl)-2,3-dihydrobenzo[b][1,4]dioxine-6-sulfonamide] | 3690 ± 1260 nM | 101 ± 1.9% | 
CN(C)c1cccc(S(=O)(=O)N2CCN(S(=O)(=O)c3ccc4c(c3)OCCO4)CC2)c1 [Compound 138] | 92 nM |  | hPK, M2 Max. Res. [1]: 54.00%
Cc1ccc(Cn2ncc3c4sc(C)cc4n(C)c3c2=O)cc1 [Compound 109, 2,4-Methyl-6-[(4-methylphenyl)methyl]-4H-thieno[3,2-b]pyrrole[3,2-d]pyridazinone] | 356 ± 120 nM | 84.1 ± 5.5% | 
O=S(=O)(NC1CCN(S(=O)(=O)c2ccc3c(c2)OCCO3)C1)c1c(F)cccc1F (centres unmarked) [Compound 42, N-(1-(2,3-dihydrobenzo[b][1,4]dioxin-6-ylsulfonyl)pyrrolidin-3-yl)-2,6-difluorobenzenesulfonamide] | > 10000 nM | 83.7 ± 24.2% | 
O=S(=O)(c1ccc(F)cc1)N1CCN(S(=O)(=O)c2ccc3c(c2)OCCO3)CC1 [Compound 6, 1-(2,3-dihydrobenzo[b][1,4]dioxin-6-ylsulfonyl)-4-(4-fluorophenylsulfonyl)piperazine] | 94 nM | 99.7 ± 4.2% | 
CC(O)c1cc2c(s1)c1cnn(Cc3ccccc3F)c(=O)c1n2C (centres unmarked) [Compound 88] | 136 ± 10 nM |  | hPK, M2 Max. Res. [1]: 119.7 ± 2.6%
Cc1cc2c(s1)c1cnn(Cc3ccccc3Cl)c(=O)c1n2C [Compound 106, 2,4-Methyl-6-[(2-chlorophenyl)methyl]-4H-thieno[3,2-b]pyrrole[3,2-d]pyridazinone] | 298 ± 140 nM | 95.6 ± 10% | 
Cc1cc2c(s1)c1cnn(Cc3cccc(F)c3)c(=O)c1n2C [Compound 104] | 225 ± 100 nM | 91.5 ± 8.4% | 
Cc1cc2c(s1)c1cnn(Cc3ccc(F)c(F)c3F)c(=O)c1n2C [Compound 116, 2,4-Methyl-6-[(2,3,4-trifluorophenyl)methyl]-4H-thieno[3,2-b]pyrrole[3,2-d]pyridazinone] | 174 ± 70 nM | 69.2 ± 14.6% | 
O=S(=O)(NCCCNS(=O)(=O)c1c(F)cccc1F)c1ccc2c(c1)OCCO2 [Compound 33, N-(3-(2,6-difluorophenylsulfonamido)propyl)-2,3-dihydrobenzo[b][1,4]dioxine-6-sulfonamide] | 3850 ± 530 nM | 106 ± 5.1% | 
CCNc1cccc(S(=O)(=O)N2CCN(S(=O)(=O)c3ccc4c(c3)OCCO4)CC2)c1 [Compound 136] | 81 nM |  | hPK, M2 Max. Res. [1]: 63.00%
Cc1cc2c(s1)c1cnn(Cc3c(F)c(F)cc(F)c3F)c(=O)c1n2C [Compound 117, 2,4-Methyl-6-[(2,3,5,6-tetrafluorophenyl)methyl]-4H-thieno[3,2-b]pyrrole[3,2-d]pyridazinone] | 345 ± 60 nM | 59.4 ± 6.3% | 
Cn1c2cc([S+](C)[O-])sc2c2cnn(Cc3cccc(N)c3)c(=O)c21 (centres unmarked) [Compound 149] |  |  | activation at 57 µM: 91%
COc1ccc(S(=O)(=O)N2CCN(S(=O)(=O)c3ccc(OC)cc3)CC2)cc1 [Compound 3, 1,4-bis(4-methoxyphenylsulfonyl)piperazine] | 171 nM | 87.6 ± 16.2% | 
Cc1cc2c(s1)c1cnn(Cc3c(F)cccc3Cl)c(=O)c1n2C [Compound 115, 2,4-Methyl-6-[(2-chloro-6-fluorophenyl)methyl]-4H-thieno[3,2-b]pyrrole[3,2-d]pyridazinone] | 60 ± 20 nM | 92.9 ± 4.1% | 
CCCc1cc(F)c(S(=O)(=O)N2CCN(S(=O)(=O)c3ccc4c(c3)OCCO4)CC2)cc1F [Compound 12, 1-(2,5-difluoro-4-propylphenylsulfonyl)-4-(2,3-dihydrobenzo[b][1,4]dioxin-6-ylsulfonyl)piperazine] | 757 nM | 69.2 ± 10.4% | PKM2 activation, result in words: diminished activity
N#Cc1ccc(S(=O)(=O)N2CCN(S(=O)(=O)c3ccc4c(c3)OCCO4)CC2)cc1 [Compound 4, 4-(4-(2,3-dihydrobenzo[b][1,4]dioxin-6-ylsulfonyl)piperazin-1-ylsulfonyl)benzonitrile] | 29 nM | 44.1 ± 6.1% | 

Compound | AC50 [2] | activation at 57 µM [1] | other results
C[C@@H]1CN(S(=O)(=O)c2ccc3c(c2)OCCO3)CCN1S(=O)(=O)c1c(F)cccc1F [Compound 47, (R)-1-(2,6-difluorophenylsulfonyl)-4-(2,3-dihydrobenzo[b][1,4]dioxin-6-ylsulfonyl)-2-methylpiperazine] | 9180 ± 2560 nM | 108 ± 9.9% | 
C[C@H]1CN(S(=O)(=O)c2c(F)cccc2F)CCN1S(=O)(=O)c1ccc2c(c1)OCCO2 [Compound 45, (S)-4-(2,6-difluorophenylsulfonyl)-1-(2,3-dihydrobenzo[b][1,4]dioxin-6-ylsulfonyl)-2-methylpiperazine] | 4340 ± 740 nM | 109 ± 9.4% | 
COc1cccc(S(=O)(=O)N2CCN(S(=O)(=O)c3ccc4c(c3)OCCO4)CC2)c1 [Compound 17, 1-(2,3-dihydrobenzo[b][1,4]dioxin-6-ylsulfonyl)-4-(3-methoxyphenylsulfonyl)piperazine] | 113 nM | 90 ± 4.5% | 
Cn1c2cc(B(O)O)sc2c2cnn(Cc3ccccc3F)c(=O)c21 [Compound 86, 4-Methyl-6-[(2-fluorophenyl)methyl]-4,1-thieno[3,2-b]pyrrole[3,2-d]pyridazinone, 2-ylboronic acid] |  | 101 ± 1.4% | 
Nc1cc(S(=O)(=O)N2CCN(S(=O)(=O)c3ccc4c(c3)OCCO4)CC2)ccn1 [Compound 146] | 1600 nM |  | hPK, M2 Max. Res. [1]: 81.00%
CCCCCn1ncc2c3sc(C)cc3n(C)c2c1=O [Compound 102, 2,4-Methyl-6-pentyl-4H-thieno[3,2-b]pyrrole[3,2-d]pyridazinone] |  |  | PKM2 activation, result in words: marked loss of potency
O=S(=O)(NCC1CN(S(=O)(=O)c2c(F)cccc2F)C1)c1ccc2c(c1)OCCO2 [Compound 43] | 4470 nM | 93.3 ± 9% | 
O=S(=O)(NCCCCNS(=O)(=O)c1c(F)cccc1F)c1ccc2c(c1)OCCO2 [Compound 34, N-(4-(2,6-difluorophenylsulfonamido)butyl)-2,3-dihydrobenzo[b][1,4]dioxine-6-sulfonamide] | 7970 ± 4050 nM | 113 ± 14.6% | 
Cc1cc2c(s1)c1cnn(Cc3cccc(F)c3F)c(=O)c1n2C [Compound 114, 2,4-Methyl-6-[(2,3-difluorophenyl)methyl]-4H-thieno[3,2-b]pyrrole[3,2-d]pyridazinone] | 215 ± 60 nM | 72.8 ± 7.8% | 
O=S(=O)(c1ccc2c(c1)OCCO2)N1CCCN(S(=O)(=O)c2c(F)cccc2F)CC1 [Compound 31, 1-(2,6-difluorophenylsulfonyl)-4-(2,3-dihydrobenzo[b][1,4]dioxin-6-ylsulfonyl)-1,4-diazepane] |  | 120 ± 7.3% | AC50 [3]: 866 nM
O=S(=O)(NC1CCN(S(=O)(=O)c2c(F)cccc2F)C1)c1ccc2c(c1)OCCO2 (centres unmarked) [Compound 41, N-(1-(2,6-difluorophenylsulfonyl)pyrrolidin-3-yl)-2,3-dihydrobenzo[b][1,4]dioxine-6-sulfonamide] | > 15000 nM | 82.4 ± 18% | 
O=S(=O)(c1ccc(Cl)cc1)N1CCN(S(=O)(=O)c2ccc3c(c2)OCCO3)CC1 [Compound 5, 1-(4-chlorophenylsulfonyl)-4-(2,3-dihydrobenzo[b][1,4]dioxin-6-ylsulfonyl)piperazine] | 154 nM | 99.6 ± 2.5% | 
O=S(=O)(c1ccc2c(c1)OCO2)N1CCN(S(=O)(=O)c2c(F)cccc2F)CC1 [Compound 24, 1-(benzo[d][1,3]dioxol-5-ylsulfonyl)-4-(2,6-difluorophenylsulfonyl)piperazine] | 191 nM | 61 ± 1.2% | 
O=S(=O)(c1ccc2c(c1)OCCO2)N1CCN(S(=O)(=O)c2c(F)ccc(O)c2F)CC1 [Compound 13, 3-(4-(2,3-dihydrobenzo[b][1,4]dioxin-6-ylsulfonyl)piperazin-1-ylsulfonyl)-2,4-difluorophenol] |  | 95.3 ± 8.4% | AC50 [3]: 52 ± 14 nM
COc1cc(F)c(S(=O)(=O)N2CCN(S(=O)(=O)c3ccc4c(c3)OCCO4)CC2)c(F)c1 [Compound 11, 1-(2,6-difluoro-4-methoxyphenylsulfonyl)-4-(2,3-dihydrobenzo[b][1,4]dioxin-6-ylsulfonyl)piperazine] | 28 nM | 91.8 ± 9.6% | 
O=S(=O)(c1ccc2c(c1)OCCO2)N1CCN(S(=O)(=O)c2ccccn2)CC1 [Compound 18, 1-(2,3-dihydrobenzo[b][1,4]dioxin-6-ylsulfonyl)-4-(pyridin-2-ylsulfonyl)piperazine] | 542 nM | 103 ± 6.6% | 
COc1cccc(Cn2ncc3c4sc([S+](C)[O-])cc4n(C)c3c2=O)c1 (centres unmarked) [Compound 148] | 92 nM | 89% | 

From US8937067B2, “Activators of human pyruvate kinase” (The United States of America, as represented by the …, priority 2008, dated 2015)
